# Measurements taken from PubChem BioAssay AID2060604 (Molecular Pharmacology Branch, DTP, NCI, 2025).
# Test system: 379773-124-R-J2-PDC complex spheroids, viability % test/control
# Experiment: Anticancer human tumor 379773-124-R-J2-PDC patient-derived endometrial carcinoma cell line growth inhibition [CLK]
# Settings: for IC50: curve of first compound; for viability, T/C: stronger effect = lower value
# Procedure, shortened: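 Patient-derived tumor cells grown as complex spheroids with HUVEC endothelial cells and mesenchymal stem cells, treated with drug combinations. Concentrations descend in half-log steps from near clinical Cmax, or from 10 microM if Cmax unknown.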
# [1] = second compound 0.0316 µM, first compound 0.0316 µM
# [2] = second compound 0.0316 µM, first compound 0.1 µM
# [3] = second compound 0.0316 µM, first compound 0.316 µM
# [4] = second compound 0.0316 µM, first compound 1 µM
# [5] = second compound 0.0316 µM, first compound 3.16 µM
# [6] = second compound 0.0316 µM, first compound 10 µM
# [7] = second compound 0.1 µM, first compound 0.0316 µM
# [8] = second compound 0.1 µM, first compound 0.1 µM
# [9] = second compound 0.1 µM, first compound 0.316 µM
# [10] = second compound 0.1 µM, first compound 1 µM
# [11] = second compound 0.1 µM, first compound 3.16 µM
# [12] = second compound 0.1 µM, first compound 10 µM
# [13] = second compound 0.316 µM, first compound 0.0316 µM
# [14] = second compound 0.316 µM, first compound 0.1 µM
# [15] = second compound 0.316 µM, first compound 0.316 µM
# [16] = second compound 0.316 µM, first compound 1 µM
# [17] = second compound 0.316 µM, first compound 3.16 µM
# [18] = second compound 0.316 µM, first compound 10 µM
# [19] = second compound 1 µM, first compound 0.0316 µM
# [20] = second compound 1 µM, first compound 0.1 µM
# [21] = second compound 1 µM, first compound 0.316 µM
# [22] = second compound 1 µM, first compound 1 µM
# [23] = second compound 1 µM, first compound 3.16 µM
# [24] = second compound 1 µM, first compound 10 µM
# [25] = second compound 3.16 µM, first compound 0.0316 µM
# [26] = second compound 3.16 µM, first compound 0.1 µM
# [27] = second compound 3.16 µM, first compound 0.316 µM
# [28] = second compound 3.16 µM, first compound 1 µM
# [29] = second compound 3.16 µM, first compound 3.16 µM
# [30] = second compound 3.16 µM, first compound 10 µM
# [31] = second compound 10 µM, first compound 0.0316 µM
# [32] = second compound 10 µM, first compound 0.1 µM
# [33] = second compound 10 µM, first compound 0.316 µM
# [34] = second compound 10 µM, first compound 1 µM
# [35] = second compound 10 µM, first compound 3.16 µM
# [36] = second compound 10 µM, first compound 10 µM
# 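Further: compound exposure lasted seven days before the viability readout.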
# 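Wherever viability, T/C is given: 100% = DMSO vehicle control wells.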
structure (smiles),measurement,setting,value
COc1ccc([C@@H](O)c2cc(-c3ncnc4cc(N5CCOCC5)ccc34)c(F)cc2Cl)nn1 + CN1CCN(c2cc(C(=O)Nc3cc4cc(-c5cnn(C)c5)ccc4cn3)ccn2)CC1,IC50,second compound 0.0316 µM,5320 nM
same,IC50,second compound 0.1 µM,2820 nM
same,IC50,second compound 0.316 µM,< 31.6 nM
same,IC50,second compound 1 µM,< 31.6 nM
same,IC50,second compound 3.16 µM,< 31.6 nM
same,IC50,second compound 10 µM,< 31.6 nM
same,"viability, T/C",[1],87.4%
same,"viability, T/C",[2],80.7%
same,"viability, T/C",[3],96.9%
same,"viability, T/C",[4],79.2%
same,"viability, T/C",[5],71.8%
same,"viability, T/C",[6],24.4%
same,"viability, T/C",[7],70.2%
same,"viability, T/C",[8],76.5%
same,"viability, T/C",[9],86.2%
same,"viability, T/C",[10],47%
same,"viability, T/C",[11],55%
same,"viability, T/C",[12],19.1%
same,"viability, T/C",[13],14.9%
same,"viability, T/C",[14],16.6%
same,"viability, T/C",[15],16.6%
same,"viability, T/C",[16],17.7%
same,"viability, T/C",[17],12.9%
same,"viability, T/C",[18],5.38%
same,"viability, T/C",[19],0.1%
same,"viability, T/C",[20],0.09%
same,"viability, T/C",[21],0.11%
same,"viability, T/C",[22],0.05%
same,"viability, T/C",[23],1.5%
same,"viability, T/C",[24],0.08%
same,"viability, T/C",[25],0.65%
same,"viability, T/C",[26],1.73%
same,"viability, T/C",[27],0.73%
same,"viability, T/C",[28],0.06%
same,"viability, T/C",[29],0.09%
same,"viability, T/C",[30],0.08%
same,"viability, T/C",[31],0.49%
same,"viability, T/C",[32],0.1%
same,"viability, T/C",[33],0.79%
same,"viability, T/C",[34],0.11%
same,"viability, T/C",[35],0.24%
same,"viability, T/C",[36],0.14%
COc1cccc2c1C(=O)c1c(O)c3c(c(O)c1C2=O)CC(O)(C(=O)CO)CC3OC1CC(N)C(O)C(C)O1 (stereo unspecified) + CN1CCN(c2cc(C(=O)Nc3cc4cc(-c5cnn(C)c5)ccc4cn3)ccn2)CC1,IC50,second compound 0.0316 µM,< 31.6 nM
same,IC50,second compound 0.1 µM,< 31.6 nM
same,IC50,second compound 0.316 µM,< 31.6 nM
same,IC50,second compound 1 µM,< 31.6 nM
same,IC50,second compound 3.16 µM,< 31.6 nM
same,IC50,second compound 10 µM,< 31.6 nM
same,"viability, T/C",[1],41%
same,"viability, T/C",[2],11.9%
same,"viability, T/C",[3],5.69%
same,"viability, T/C",[4],3.76%
same,"viability, T/C",[5],0.3%
same,"viability, T/C",[6],0.91%
same,"viability, T/C",[7],30.5%
same,"viability, T/C",[8],10.3%
same,"viability, T/C",[9],9.14%
same,"viability, T/C",[10],3.16%
same,"viability, T/C",[11],0.33%
same,"viability, T/C",[12],0.09%
same,"viability, T/C",[13],8.53%
same,"viability, T/C",[14],8.1%
same,"viability, T/C",[15],3.09%
same,"viability, T/C",[16],2.71%
same,"viability, T/C",[17],0.12%
same,"viability, T/C",[18],0.21%
same,"viability, T/C",[19],0.13%
same,"viability, T/C",[20],0.1%
same,"viability, T/C",[21],0.78%
same,"viability, T/C",[22],1.01%
same,"viability, T/C",[23],0.06%
same,"viability, T/C",[24],0.16%
same,"viability, T/C",[25],2.21%
same,"viability, T/C",[26],0.27%
same,"viability, T/C",[27],1.48%
same,"viability, T/C",[28],0.04%
same,"viability, T/C",[29],0.07%
same,"viability, T/C",[30],0.17%
same,"viability, T/C",[31],1.64%
same,"viability, T/C",[32],0.35%
same,"viability, T/C",[33],0.12%
same,"viability, T/C",[34],2.01%
same,"viability, T/C",[35],0.31%
same,"viability, T/C",[36],0.12%
C=C(F)C(=O)N1CCN(c2nc(OCC3CCCN3C)nc3c2CCN(c2cccc4cccc(Cl)c24)C3)CC1CC#N (stereo unspecified) + CNC(=O)c1ccc(Nc2nc(OC3CCCC3)c3c(-c4ccc5nc(C)oc5c4)c[nH]c3n2)c(OC)c1,IC50,second compound 0.0316 µM,2020 nM
same,IC50,second compound 0.1 µM,< 31.6 nM
same,IC50,second compound 0.316 µM,< 31.6 nM
same,IC50,second compound 1 µM,< 31.6 nM
same,IC50,second compound 3.16 µM,< 31.6 nM
same,IC50,second compound 10 µM,< 31.6 nM
same,"viability, T/C",[1],69.1%
same,"viability, T/C",[2],63.1%
same,"viability, T/C",[3],72.3%
same,"viability, T/C",[4],78%
same,"viability, T/C",[5],36.7%
same,"viability, T/C",[6],0.16%
same,"viability, T/C",[7],35.7%
same,"viability, T/C",[8],42.1%
same,"viability, T/C",[9],42.7%
same,"viability, T/C",[10],39.8%
same,"viability, T/C",[11],26.7%
same,"viability, T/C",[12],0.13%
same,"viability, T/C",[13],37.1%
same,"viability, T/C",[14],41.4%
same,"viability, T/C",[15],32.4%
same,"viability, T/C",[16],39%
same,"viability, T/C",[17],16.2%
same,"viability, T/C",[18],0.17%
same,"viability, T/C",[19],25.5%
same,"viability, T/C",[20],31.4%
same,"viability, T/C",[21],34.9%
same,"viability, T/C",[22],34.5%
same,"viability, T/C",[23],10.4%
same,"viability, T/C",[24],0.13%
same,"viability, T/C",[25],30.2%
same,"viability, T/C",[26],35.3%
same,"viability, T/C",[27],35.7%
same,"viability, T/C",[28],35%
same,"viability, T/C",[29],14.3%
same,"viability, T/C",[30],2.42%
same,"viability, T/C",[31],31.6%
same,"viability, T/C",[32],32.9%
same,"viability, T/C",[33],27.7%
same,"viability, T/C",[34],27.3%
same,"viability, T/C",[35],9.27%
same,"viability, T/C",[36],0.53%
